{"source": "paper PMC4585962", "about": "“A peptide factor secreted by Staphylococcus pseudintermedius exhibits properties of both bacteriocins and virulence factors” (Scientific Reports, 2015)", "key": {"B. subtilis": {"system": "B. subtilis", "assay": "Bactericidal test, plating on TSA after incubation", "assay_type": "cell-based, Bacillus subtilis", "conditions": "1 × 10^4 CFU incubated with 1 μM bacteriocin for 30 minutes (data not shown)"}, "S. aureus": {"system": "S. aureus", "assay": "Bactericidal test, plating on TSA after incubation", "assay_type": "cell-based, Staphylococcus aureus", "conditions": "1 × 10^4 CFU incubated with 1 μM bacteriocin for 30 minutes (data not shown)"}, "S. aureus RN4220 (pCN68)": {"system": "S. aureus RN4220 (pCN68)", "assay": "GFP release assay", "assay_type": "cell-based, Staphylococcus aureus", "conditions": "2 × 10^6 CFU in PBS, 1 h 37 °C, 0.23 to 15 μM BacSp222, fluorescence of supernatant 480/510 nm", "experimental": "(§1) The bacteria transformed with GFP-encoding plasmids (pCN68[59] for S. aureus RN4220; pALCP2G[60] for B. subtilis 1A751[61] and E. coli DH5α) were grown overnight in TSB supplemented with appropriate antibiotics, washed twice and finally suspended in PBS. Fifty microliters of the suspensions containing 2 × 10^6 CFU of bacteria were then incubated for 1 h at 37 °C with serial dilutions of BacSp222 at concentrations ranging from 0.23 to 15 μM. Then, the bacteria were spun down, and the fluorescence in the supernatant was determined (Synergy H1 microplate reader, BioTek, 480/510 nm excitation/emission wavelengths). As the controls for 100% GFP release, S. aureus and B. subtilis were lysed using lysostaphin and chicken egg white lysozyme (Sigma), respectively, whereas the E. coli cells were disrupted by ultrasonication."}, "E. coli DH5α (pALCP2G)": {"system": "E. coli DH5α (pALCP2G)", "assay": "GFP release assay", "assay_type": "cell-based, Escherichia coli", "conditions": "2 × 10^6 CFU in PBS, 1 h 37 °C, 0.23 to 15 μM BacSp222, fluorescence of supernatant 480/510 nm", "experimental": "as §1"}, "[1]": {"molecular_target": "T1, bovine TPCK-treated trypsin (Bos taurus, UniProt P00760)", "T1 construct": "purchased Sigma", "T1 sequence (P00760 24-246)": "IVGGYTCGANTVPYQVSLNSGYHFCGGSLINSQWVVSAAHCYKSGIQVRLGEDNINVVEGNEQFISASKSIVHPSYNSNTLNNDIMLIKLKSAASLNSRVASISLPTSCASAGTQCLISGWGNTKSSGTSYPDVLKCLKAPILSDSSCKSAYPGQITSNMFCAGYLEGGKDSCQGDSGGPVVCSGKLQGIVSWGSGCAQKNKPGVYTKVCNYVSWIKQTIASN", "assay": "Susceptibility to proteolysis, residual bactericidal activity", "assay_type": "in vitro ADME", "conditions": "30 μM peptide, 100 mM Tris-HCl pH 8.0 with 5 mM CaCl2, enzyme:peptide 1:50 or 1:10 (w/w), 3 hours, 37 °C; residual activity by radial diffusion assay on B. subtilis; triplicate", "experimental": "(§2) The bactericidal activity of BacSp222 was also determined using the radial diffusion assay. In TSB agar (1%, w/v) containing a 200× diluted overnight culture of Bacillus subtilis ATCC 6633, wells of 2.4-mm diameter were created by drilling out the agar and filling the hole with 10 μl of the BacSp222 preparation for testing. Following overnight incubation at 37 °C, the bactericidal activity was measured as the area of the inhibition zones.\n(§3) The temperature stability of BacSp222 (30 μM final concentration) was determined in PBS. The solution was incubated for 1 or 3 h at 72 °C (typical temperature of pasteurization) or at 100 °C. Independently, a solution of bacteriocin was also subjected to a full cycle of autoclaving (20 min at 121 °C). The susceptibility of BacSp222 to proteolysis was verified using S. aureus staphopain C and V8 peptidase, human neutrophil elastase, human cathepsin G (Biocentrum), bovine TPCK-treated trypsin, pepsin from porcine gastric mucosa (Sigma), and proteinase K (A&A Biotechnology). The dried samples of BacSp222 were dissolved to a final concentration of 30 μM in the following buffers: 100 mM Tris-HCl pH 8.0 containing 5 mM CaCl2 (for trypsin and proteinase K), 100 mM Tris-HCl pH 7.5 containing 5 mM cysteine hydrochloride and 5 mM EDTA (for staphopain C), 100 mM Tris-HCl pH 8.0 (for elastase), 100 mM Tris-HCl pH 7.5 containing 500 mM NaCl (for cathepsin G), 100 mM sodium phosphate pH 7.8 (for V8 peptidase), and 100 mM ammonium acetate pH 4.0 (for pepsin). The peptidases were added at 1:50 or 1:10 (enzyme:BacSp222) ratios by weight, and the mixtures were incubated for 1 or 3 h at 37 °C. The residual activity was determined with the radial diffusion assay using Bacillus subtilis as an indicator strain. All of the above experiments were performed in triplicate."}, "human cathepsin G": {"molecular_target": "T2, human cathepsin G (Homo sapiens, UniProt P08311)", "T2 construct": "purchased Biocentrum", "T2 sequence (P08311 21-255)": "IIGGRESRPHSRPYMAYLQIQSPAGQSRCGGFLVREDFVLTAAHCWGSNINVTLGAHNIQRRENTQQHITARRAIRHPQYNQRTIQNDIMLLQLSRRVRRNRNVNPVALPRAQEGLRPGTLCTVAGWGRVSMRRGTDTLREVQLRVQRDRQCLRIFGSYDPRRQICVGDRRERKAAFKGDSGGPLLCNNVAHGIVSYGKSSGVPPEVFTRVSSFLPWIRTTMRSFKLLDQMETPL", "assay": "Susceptibility to proteolysis, residual bactericidal activity", "assay_type": "in vitro ADME", "conditions": "30 μM peptide, 100 mM Tris-HCl pH 7.5 with 500 mM NaCl, enzyme:peptide 1:50 or 1:10 (w/w), 3 hours, 37 °C; residual activity by radial diffusion assay on B. subtilis; triplicate", "experimental": "as §2, §3"}, "[2]": {"molecular_target": "T3, human neutrophil elastase (Homo sapiens, UniProt P08246)", "T3 construct": "purchased Biocentrum", "T3 sequence (P08246 30-267)": "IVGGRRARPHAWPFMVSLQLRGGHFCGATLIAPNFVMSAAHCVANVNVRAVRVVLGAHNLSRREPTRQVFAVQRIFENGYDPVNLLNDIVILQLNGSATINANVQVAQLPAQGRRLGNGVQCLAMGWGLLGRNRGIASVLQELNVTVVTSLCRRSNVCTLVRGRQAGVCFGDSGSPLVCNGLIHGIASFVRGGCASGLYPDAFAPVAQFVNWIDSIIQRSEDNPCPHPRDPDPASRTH", "assay": "Susceptibility to proteolysis, residual bactericidal activity", "assay_type": "in vitro ADME", "conditions": "30 μM peptide, 100 mM Tris-HCl pH 8.0, enzyme:peptide 1:50 or 1:10 (w/w), 3 hours, 37 °C; residual activity by radial diffusion assay on B. subtilis; triplicate", "experimental": "as §2, §3"}, "[3]": {"molecular_target": "T4, pepsin from porcine gastric mucosa (Sus scrofa, UniProt P00791)", "T4 construct": "purchased Sigma; host or cells: porcine gastric mucosa", "T4 sequence (P00791 60-385)": "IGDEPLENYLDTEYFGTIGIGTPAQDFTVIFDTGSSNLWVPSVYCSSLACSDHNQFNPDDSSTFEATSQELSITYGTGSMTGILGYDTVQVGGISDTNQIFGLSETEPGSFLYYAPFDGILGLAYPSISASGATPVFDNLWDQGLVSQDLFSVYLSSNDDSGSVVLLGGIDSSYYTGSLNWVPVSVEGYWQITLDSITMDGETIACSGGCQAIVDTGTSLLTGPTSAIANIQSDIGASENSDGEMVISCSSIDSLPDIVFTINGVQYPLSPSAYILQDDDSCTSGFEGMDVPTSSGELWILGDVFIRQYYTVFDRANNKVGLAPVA", "assay": "Susceptibility to proteolysis, residual bactericidal activity", "assay_type": "in vitro ADME", "conditions": "30 μM peptide, 100 mM ammonium acetate pH 4.0, enzyme:peptide 1:50 or 1:10 (w/w), 3 hours, 37 °C; residual activity by radial diffusion assay on B. subtilis; triplicate", "experimental": "as §2, §3"}, "proteinase K": {"molecular_target": "T5, proteinase K (Parengyodontium album, UniProt P06873)", "T5 construct": "purchased A&A Biotechnology", "T5 sequence (P06873 106-384)": "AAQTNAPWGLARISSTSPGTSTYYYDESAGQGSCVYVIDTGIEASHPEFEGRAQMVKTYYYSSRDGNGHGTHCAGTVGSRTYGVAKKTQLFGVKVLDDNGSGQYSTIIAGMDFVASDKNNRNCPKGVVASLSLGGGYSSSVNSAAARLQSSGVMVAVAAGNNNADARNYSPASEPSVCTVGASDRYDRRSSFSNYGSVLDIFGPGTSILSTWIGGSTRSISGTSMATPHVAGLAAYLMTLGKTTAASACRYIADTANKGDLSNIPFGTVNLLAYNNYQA", "assay": "Susceptibility to proteolysis, residual bactericidal activity", "assay_type": "in vitro ADME", "conditions": "30 μM peptide, 100 mM Tris-HCl pH 8.0 with 5 mM CaCl2, enzyme:peptide 1:50 or 1:10 (w/w), 3 hours, 37 °C; residual activity by radial diffusion assay on B. subtilis; triplicate", "experimental": "as §2, §3"}, "V8 peptidase": {"molecular_target": "T6, V8 peptidase (Staphylococcus aureus, UniProt P0C1U8)", "T6 construct": "purchased Biocentrum", "T6 sequence (P0C1U8 69-336)": "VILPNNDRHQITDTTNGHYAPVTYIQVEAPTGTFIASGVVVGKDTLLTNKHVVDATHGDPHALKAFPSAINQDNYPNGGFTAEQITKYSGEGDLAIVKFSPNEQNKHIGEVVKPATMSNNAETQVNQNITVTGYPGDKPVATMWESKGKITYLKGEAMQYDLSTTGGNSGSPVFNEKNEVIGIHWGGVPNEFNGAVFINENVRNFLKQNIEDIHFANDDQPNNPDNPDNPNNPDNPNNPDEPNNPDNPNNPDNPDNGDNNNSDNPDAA", "assay": "Susceptibility to proteolysis, residual bactericidal activity", "assay_type": "in vitro ADME, S. aureus", "conditions": "30 μM peptide, 100 mM sodium phosphate pH 7.8, enzyme:peptide 1:50 or 1:10 (w/w), 3 hours, 37 °C; residual activity by radial diffusion assay on B. subtilis; triplicate", "experimental": "as §2\n(§4) The temperature stability of BacSp222 (30 μM final concentration) was determined in PBS. The solution was incubated for 1 or 3 h at 72 °C (typical temperature of pasteurization) or at 100 °C. Independently, a solution of bacteriocin was also subjected to a full cycle of autoclaving (20 min at 121 °C). The susceptibility of BacSp222 to proteolysis was verified using S. aureus staphopain C and V8 peptidase, human neutrophil elastase, human cathepsin G (Biocentrum), bovine TPCK-treated trypsin, pepsin from porcine gastric mucosa (Sigma), and proteinase K (A&A Biotechnology). […] The residual activity was determined with the radial diffusion assay using Bacillus subtilis as an indicator strain. […]"}, "staphopain C (StpC)": {"system": "staphopain C (StpC)", "assay": "Susceptibility to proteolysis, residual bactericidal activity", "assay_type": "in vitro ADME, S. aureus", "conditions": "30 μM peptide, 100 mM Tris-HCl pH 7.5 with 5 mM cysteine hydrochloride and 5 mM EDTA, enzyme:peptide 1:50 or 1:10 (w/w), 3 hours, 37 °C; residual activity by radial diffusion assay on B. subtilis; triplicate", "experimental": "as §2, §4"}, "FPRL-1": {"molecular_target": "T7, FPRL-1 (Homo sapiens, UniProt P25090)", "T7 construct": "host or cells: CHO-K1", "T7 sequence (P25090 whole entry)": "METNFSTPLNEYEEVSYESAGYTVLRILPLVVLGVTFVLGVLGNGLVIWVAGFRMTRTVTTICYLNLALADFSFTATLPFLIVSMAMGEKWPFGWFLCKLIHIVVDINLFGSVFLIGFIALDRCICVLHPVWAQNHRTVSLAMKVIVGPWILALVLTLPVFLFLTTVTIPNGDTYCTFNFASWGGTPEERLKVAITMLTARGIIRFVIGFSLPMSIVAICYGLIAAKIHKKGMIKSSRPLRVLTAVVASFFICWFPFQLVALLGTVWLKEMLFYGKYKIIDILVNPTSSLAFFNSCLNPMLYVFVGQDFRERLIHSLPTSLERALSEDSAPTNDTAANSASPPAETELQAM", "assay": "Formyl peptide receptor assay, cAMP-GLO, recombinant CHO-K1 cells", "assay_type": "cell-based", "conditions": "10 pM–5 μM BacSp222, CHO-K1 cells overexpressing FPRL-1, cAMP-GLO; fMLP positive control (data not shown)", "experimental": "Activation of the cellular formyl-peptide receptor was assayed using cAMPZen FroZen N-formyl peptide (FPRL1) human recombinant CHO-K1 cells (Perkin-Elmer) and a cAMP-GLO bioluminescent assay (Promega) largely according to the protocols provided by the manufacturers. Formyl-methionyl-leucyl-phenylalanine peptide (fMLP, Sigma) was used as a positive control, and the BacSp222 concentrations tested were 0.01, 0.1, 1.0, 10, 100, 1000, and 5000 nM."}}, "note": "“Also recorded” adds a separate entry of the source. No end group written: not given here. *: point of attachment. For = O=C*"}
{"substance": "For-MAGLLRFLLSKGRALYNWAKSHVGKVWEWLKSGATYEQIKEWIENALGWR [BacSp222]", "values": [{"measurement": "colonies after plating on TSA", "setting": "B. subtilis", "value": "complete absence of the colonies"}, {"measurement": "colonies after plating on TSA", "setting": "S. aureus", "value": "complete absence of the colonies"}, {"measurement": "leakage of GFP from recombinant cells", "setting": "S. aureus RN4220 (pCN68)", "value": "dose-dependent leakage of GFP was observed"}, {"measurement": "leakage of GFP from recombinant cells", "setting": "E. coli DH5α (pALCP2G)", "value": "not"}, {"measurement": "activity of BacSp222 after incubation with the enzyme", "setting": "[1]", "value": "not significantly reduced"}, {"measurement": "activity of BacSp222 after incubation with the enzyme", "setting": "human cathepsin G", "value": "not significantly reduced"}, {"measurement": "activity of BacSp222 after incubation with the enzyme", "setting": "[2]", "value": "not significantly reduced"}, {"measurement": "activity of BacSp222 after incubation with the enzyme", "setting": "[3]", "value": "not significantly reduced"}, {"measurement": "activity of BacSp222 after incubation with the enzyme", "setting": "proteinase K", "value": "not significantly reduced"}, {"measurement": "activity of BacSp222 after incubation with the enzyme", "setting": "V8 peptidase", "value": "not significantly reduced"}, {"measurement": "activity of BacSp222 after incubation with the enzyme", "setting": "staphopain C (StpC)", "value": "not significantly reduced"}, {"measurement": "stimulation of formyl-peptide receptor", "setting": "FPRL-1", "value": "not able to stimulate; also recorded: did not activate"}]}
